Assay [1] has as its target recombinant poly(ADP-ribose) polymerase 1 (PARP1) (Homo sapiens, UniProt P09874). The experiment in a line: biochemical. The following applies: inhibition of PARP1 enzyme activity, chemiluminescence.
The target of assay [2] is recombinant poly(ADP-ribose) polymerase 2 (PARP2) (Homo sapiens, UniProt Q9UGN5). The experiment in a line: biochemical. Particulars: inhibition of PARP2 enzyme activity, chemiluminescence.
A further assay deals with MDA-MB-436 cells. The experiment in a line: Growth inhibition assay against BRCA mutant human breast cancer MDA-MB-436 cell line (CCK-8, 7 days). It is filed as cell-based.

One may read the IC50 as the concentration needed to halve the response being measured.

Sequence of recombinant poly(ADP-ribose) polymerase 2 (PARP2) (Q9UGN5 whole entry): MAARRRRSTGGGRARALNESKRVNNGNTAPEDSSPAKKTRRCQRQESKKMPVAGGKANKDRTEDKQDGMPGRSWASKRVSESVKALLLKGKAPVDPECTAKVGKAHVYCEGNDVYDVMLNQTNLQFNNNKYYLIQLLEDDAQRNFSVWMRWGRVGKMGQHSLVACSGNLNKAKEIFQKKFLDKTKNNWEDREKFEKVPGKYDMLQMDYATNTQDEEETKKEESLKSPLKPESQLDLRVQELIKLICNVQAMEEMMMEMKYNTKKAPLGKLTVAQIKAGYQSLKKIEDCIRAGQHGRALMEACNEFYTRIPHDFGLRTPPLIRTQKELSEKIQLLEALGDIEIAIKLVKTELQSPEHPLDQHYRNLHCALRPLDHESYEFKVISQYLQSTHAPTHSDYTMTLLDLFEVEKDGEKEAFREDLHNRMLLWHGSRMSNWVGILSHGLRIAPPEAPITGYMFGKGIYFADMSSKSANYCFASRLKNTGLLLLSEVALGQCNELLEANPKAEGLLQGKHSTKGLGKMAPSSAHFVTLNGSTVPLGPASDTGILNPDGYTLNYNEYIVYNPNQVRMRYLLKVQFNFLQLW
Sequence of recombinant poly(ADP-ribose) polymerase 1 (PARP1) (P09874 whole entry): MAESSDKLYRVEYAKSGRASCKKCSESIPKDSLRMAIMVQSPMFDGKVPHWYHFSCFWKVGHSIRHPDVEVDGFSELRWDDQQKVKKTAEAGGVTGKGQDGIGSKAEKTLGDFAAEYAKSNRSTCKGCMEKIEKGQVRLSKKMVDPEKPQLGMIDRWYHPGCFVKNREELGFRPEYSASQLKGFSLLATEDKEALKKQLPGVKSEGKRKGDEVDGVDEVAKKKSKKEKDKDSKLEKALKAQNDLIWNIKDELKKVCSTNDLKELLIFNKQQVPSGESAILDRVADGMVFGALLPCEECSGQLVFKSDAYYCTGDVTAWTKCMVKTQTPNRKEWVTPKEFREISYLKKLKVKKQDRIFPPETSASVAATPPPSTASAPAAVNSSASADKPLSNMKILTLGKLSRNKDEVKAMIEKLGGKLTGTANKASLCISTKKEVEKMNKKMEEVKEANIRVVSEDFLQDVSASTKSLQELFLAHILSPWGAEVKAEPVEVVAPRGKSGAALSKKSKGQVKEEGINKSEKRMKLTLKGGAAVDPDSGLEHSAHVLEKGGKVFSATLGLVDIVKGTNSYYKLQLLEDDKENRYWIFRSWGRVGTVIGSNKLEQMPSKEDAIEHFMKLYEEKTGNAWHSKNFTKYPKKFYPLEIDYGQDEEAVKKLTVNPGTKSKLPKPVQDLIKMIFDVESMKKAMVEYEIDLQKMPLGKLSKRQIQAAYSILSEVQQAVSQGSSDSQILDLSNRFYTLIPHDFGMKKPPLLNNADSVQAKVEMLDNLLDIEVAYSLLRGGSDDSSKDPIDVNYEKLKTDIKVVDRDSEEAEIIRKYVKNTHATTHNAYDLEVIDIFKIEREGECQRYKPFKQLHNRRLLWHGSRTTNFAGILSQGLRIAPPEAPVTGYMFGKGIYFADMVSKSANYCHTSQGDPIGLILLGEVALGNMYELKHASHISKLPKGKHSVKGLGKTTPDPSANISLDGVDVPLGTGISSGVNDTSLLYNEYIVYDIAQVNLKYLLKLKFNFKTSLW

For `CNC(=O)c1ccc(N2CCN(Cc3ccc4c(c3)[nH]c(=O)c3cccn34)CC2)c(Cl)n1` [Example 35, 7-((4-(2-chloro-6-(methylcarbamoyl)pyridin-3-yl)piperazin-1-yl)methyl)pyrrolo[1,2-a]quinoxalin-4(5H)-one], the IC50 in assay [1] came out at 0.81 nM; in assay [2] it was 26.3 nM; in the assay with MDA-MB-436 cells, 0.39 nM.
In the same order, the values of `CNC(=O)c1ccc(N2CCN(Cc3ccc4c(c3)[nH]c(=O)c3ccnn34)CC2)c(F)n1` [Example 36, 7-((4-(2-fluoro-6-(methylcarbamoyl)pyridin-3-yl)piperazin-1-yl)methyl)pyrazolo[1,5-a]quinoxalin-4(5H)-one] are 0.44 nM, 41.4 nM and 1.11 nM.
Taken in the same sequence, the figures for `CNC(=O)c1ccc(N2CCN(Cc3ccc4c(c3)[nH]c(=O)c3ccnn34)CC2)c(Cl)n1` [Example 37, 7-((4-(2-chloro-6-(methylcarbamoyl)pyridin-3-yl)piperazin-1-yl)methyl)pyrazolo[1,5-a]quinoxalin-4(5H)-one] were 0.47 nM, 46.5 nM and 1.07 nM.
In the same order, the values of `CNC(=O)c1ccc(N2CCN(Cc3ccc4c(c3)[nH]c(=O)c3cncn34)CC2)c(F)n1` [Example 38, 7-((4-(2-fluoro-6-(methylcarbamoyl)pyridin-3-yl)piperazin-1-yl)methyl)imidazo[1,5-a]quinoxalin-4(5H)-one] are 0.3 nM, 59.9 nM and 4.06 nM.
On to `CNC(=O)c1ccc(N2CCN(Cc3cc(F)c4c(c3)[nH]c(=O)c3cccn34)CC2)c(C)n1` [Example 40, 7-((4-(2-methyl-6-(methylcarbamoyl)pyridin-3-yl)piperazin-1-yl)methyl)-9-fluoropyrrolo[1,2-a]quinoxalin-4(5H)-one], for which the IC50 in assay [1] was determined as 1.54 nM; in assay [2], 38.7 nM; in the assay with MDA-MB-436 cells, 1.15 nM.
In the case of `CNC(=O)c1ccc(N2CCN(Cc3cc(F)c4c(c3)[nH]c(=O)c3ccnn34)CC2)c(F)n1` [Example 44, 7-((4-(2-fluoro-6-(methylcarbamoyl)pyridin-3-yl)piperazin-1-yl)methyl)-9-fluoropyrazolo[1,5-a]quinoxalin-4(5H)-one], the half-inhibitory concentration (IC50) in assay [1] stood at 1.76 nM; in assay [2], 318 nM; in the assay with MDA-MB-436 cells, 2.17 nM.
As to `CNC(=O)c1ccc(N2CCN(Cc3ccc4c(c3)[nH]c(=O)c3ccc(C)n34)CC2)c(C)n1` [Example 54, 7-((4-(2-methyl-6-(methylcarbamoyl)pyridin-3-yl)piperazin-1-yl)methyl)-1-methylpyrrolo[1,2-a]quinoxalin-4(5H)-one], the IC50 is 1.32 nM in assay [1], 12.7 nM in assay [2] and 1.85 nM in the assay on MDA-MB-436 cells.
In the case of `CNC(=O)c1ccc(N2CCN(Cc3ccc4c(c3)[nH]c(=O)c3c(C)ccn34)CC2)c(C)n1` [Example 56, 7-((4-(2-methyl-6-(methylcarbamoyl)pyridin-3-yl)piperazin-1-yl)methyl)-3-methylpyrrolo[1,2-a]quinoxalin-4(5H)-one], the IC50 was determined as 2.32 nM in assay [1], 37.9 nM in assay [2] and 0.65 nM in the assay with MDA-MB-436 cells.
Taken in the same sequence, the figures for `CNC(=O)c1ccc(N2CCN(Cc3ccc4c(c3)[nH]c(=O)c3cc(C)nn34)CC2)c(C)n1` [Example 57, 7-((4-(2-methyl-6-(methylcarbamoyl)pyridin-3-yl)piperazin-1-yl)methyl)-2-methylpyrazolo[1,5-a]quinoxalin-4(5H)-one] were 1.77 nM, 67.9 nM and 1.43 nM.
Taken in the same sequence, the figures for `Cc1nc(C(=O)NC2CC2)ccc1N1CCN(Cc2ccc3c(c2)[nH]c(=O)c2cccn23)CC1` [Example 59, 7-((4-(2-methyl-6-(cyclopropylcarbamoyl)pyridin-3-yl)piperazin-1-yl)methyl)pyrrolo[1,2-a]quinoxalin-4(5H)-one] were 1.39 nM, 21.9 nM and 0.99 nM.
Taken in the same sequence, the figures for `Cc1nc(C(=O)NC2CC2)ccc1N1CCN(Cc2ccc3c(c2)[nH]c(=O)c2ccnn23)CC1` [Example 62, 7-((4-(2-methyl-6-(cyclopropylcarbamoyl)pyridin-3-yl)piperazin-1-yl)methyl)pyrazolo[1,5-a]quinoxalin-4(5H)-one] were 0.29 nM, 150 nM and 3.42 nM.
As to `Cc1nc(C(=O)NC2CC2)ccc1N1CCN(Cc2cc(F)c3c(c2)[nH]c(=O)c2cccn23)CC1` [Example 66, 7-((4-(2-methyl-6-(cyclopropylcarbamoyl)pyridin-3-yl)piperazin-1-yl)methyl)-9-fluoropyrrolo[1,2-a]quinoxalin-4(5H)-one], the IC50 in assay [1] was found to be 1.63 nM; in assay [2] it was 66.1 nM; with MDA-MB-436 cells it was 1.66 nM.
For the compound `O=C(NC1CC1)c1ccc(N2CCN(Cc3cc(F)c4c(c3)[nH]c(=O)c3cccn34)CC2)c(F)n1` [Example 67, 7-((4-(2-fluoro-6-(cyclopropylcarbamoyl)pyridin-3-yl)piperazin-1-yl)methyl)-9-fluoropyrrolo[1,2-a]quinoxalin-4(5H)-one], the IC50 in assay [1] stood at 2.02 nM; in assay [2] it was 48.2 nM; with MDA-MB-436 cells, 2.11 nM.
Take `O=C(NC1CC1)c1ccc(N2CCN(Cc3cc(F)c4c(c3)[nH]c(=O)c3cccn34)CC2)c(Cl)n1` [Example 68, 7-((4-(2-chloro-6-(cyclopropylcarbamoyl)pyridin-3-yl)piperazin-1-yl)methyl)-9-fluoropyrrolo[1,2-a]quinoxalin-4(5H)-one]: the IC50 in assay [1] was 1.61 nM; in assay [2] it was 90.1 nM; with MDA-MB-436 cells, 2.92 nM.
In the same order, the values of `CNC(=O)c1ccc(N2CCN(Cc3ccc4c(c3)[nH]c(=O)c3cc(C)nn34)CC2)c(F)n1` [Example 69, 7-((4-(2-fluoro-6-(methylcarbamoyl)pyridin-3-yl)piperazin-1-yl)methyl)-2-methylpyrazolo[1,5-a]quinoxalin-4(5H)-one] are 2.32 nM, 49.9 nM and 1.08 nM.
Taken in the same sequence, the figures for `CNC(=O)c1ccc(N2CCN(Cc3ccc4c(c3)[nH]c(=O)c3cc(C)nn34)CC2)c(Cl)n1` [Example 70, 7-((4-(2-chloro-6-(methylcarbamoyl)pyridin-3-yl)piperazin-1-yl)methyl)-2-methylpyrazolo[1,5-a]quinoxalin-4(5H)-one] were 1.37 nM, 103 nM and 1.41 nM.
In the same order, the values of `CNC(=O)c1ccc(N2CCN(Cc3ccc4c(c3)[nH]c(=O)c3c(C)cnn34)CC2)c(F)n1` [Example 71, 7-((4-(2-fluoro-6-(methylcarbamoyl)pyridin-3-yl)piperazin-1-yl)methyl)-3-methylpyrazolo[1,5-a]quinoxalin-4(5H)-one] are 1.35 nM, 66.4 nM and 0.77 nM.
As to `CNC(=O)c1ccc(N2CCN(Cc3ccc4c(c3)[nH]c(=O)c3c(C)cnn34)CC2)c(Cl)n1` [Example 72, 7-((4-(2-chloro-6-(methylcarbamoyl)pyridin-3-yl)piperazin-1-yl)methyl)-3-methylpyrazolo[1,5-a]quinoxalin-4(5H)-one], the IC50 turned out to be 1.12 nM in assay [1], 110 nM in assay [2] and 2.09 nM in the assay with MDA-MB-436 cells.
In the same order, the values of `CNC(=O)c1ccc(N2CCN(Cc3cc(F)c4c(c3)[nH]c(=O)c3cc(C)nn34)CC2)c(F)n1` [Example 73, 7-((4-(2-fluoro-6-(methylcarbamoyl)pyridin-3-yl)piperazin-1-yl)methyl)-9-fluoro-2-methylpyrazolo[1,5-a]quinoxalin-4(5H)-one] are 1.96 nM, 78.1 nM and 1.77 nM.
In the same order, the values of `CNC(=O)c1ccc(N2CCN(Cc3cc(F)c4c(c3)[nH]c(=O)c3cc(C)nn34)CC2)c(Cl)n1` [Example 74, 7-((4-(2-chloro-6-(methylcarbamoyl)pyridin-3-yl)piperazin-1-yl)methyl)-9-fluoro-2-methylpyrazolo[1,5-a]quinoxalin-4(5H)-one] are 1.52 nM, 186 nM and 1.58 nM.
In the same order, the values of `CNC(=O)c1ccc(N2CCN(Cc3cc(F)c4c(c3)[nH]c(=O)c3c(C)cnn34)CC2)c(F)n1` [Example 76, 7-((4-(2-fluoro-6-(methylcarbamoyl)pyridin-3-yl)piperazin-1-yl)methyl)-9-fluoro-3-methylpyrazolo[1,5-a]quinoxalin-4(5H)-one] are 2.1 nM, 64.6 nM and 1.37 nM.
As for `CNC(=O)c1ccc(N2CCN(Cc3cc(F)c4c(c3)[nH]c(=O)c3c(C)cnn34)CC2)c(Cl)n1` [Example 77, 7-((4-(2-chloro-6-(methylcarbamoyl)pyridin-3-yl)piperazin-1-yl)methyl)-9-fluoro-3-methylpyrazolo[1,5-a]quinoxalin-4(5H)-one], the IC50 turned out to be 1.51 nM in assay [1], 241 nM in assay [2] and 2.39 nM with MDA-MB-436 cells.
`CNC(=O)c1ccc(N2CCN(Cc3cc(F)c4c(c3)[nH]c(=O)c3c(C)cnn34)CC2)c(C)n1` [Example 78, 7-((4-(2-methyl-6-(methylcarbamoyl)pyridin-3-yl)piperazin-1-yl)methyl)-9-fluoro-3-methylpyrazolo[1,5-a]quinoxalin-4(5H)-one]: the IC50 worked out at 1.38 nM in assay [1], 153 nM in assay [2] and 1 nM in the assay on MDA-MB-436 cells.
Taken in the same sequence, the figures for `CNC(=O)c1ccc(N2CCN(Cc3cc(F)c4c5c(c(=O)[nH]c4c3)CCC5)CC2)c(F)n1` [Example 80, 7-((4-(2-fluoro-6-(methylcarbamoyl)pyridin-3-yl)piperazin-1-yl)methyl)-9-fluoro-1,2,3,5-tetrahydro-4H-cyclopenta[c]quinolin-4-one] were 2.26 nM, 32 nM and 2.37 nM.

Values taken from patent US20240368169A1 (priority 2021, published 2024).
